ChEMBL document CHEMBL6153170 (J Med Chem, 2025)
pIC50, pKd: −log10 of the molar value. The source made the active and inactive calls. The calls are words filed in the database; no cut-off is given here.

Columns and labels:
[1] = Oral bioavailability in male Sprague-Dawley rat at 10 mg/kg measured after 48 hrs by triple quadrupole mass spectrometric analysis; type: ADME, organism-based; settings: in vivo
[2] = system: Jurkat; assay: Cytotoxicity against human Jurkat T cells assessed as reduction in cell viability at 0.01 to 1 uM incubated for 48 hrs; type: functional, cell-based; settings: dose 0.01-1 µM
[3] = Toxicity in C57 mouse assessed as myelosuppression by measuring PDW level at 20 mg/kg/day, IG administered for 14 days by heat map analysis; type: organism-based; settings: in vivo, po, 336 h, time 14 day
[4] = system: B16-F10; assay: Antitumor activity against mouse B16-F10 cells implanted in C57BL/6 mouse model assessed as reduction in tumor volume at 20 mg/kg/day, ip administered for 14 days; type: functional, organism-based; settings: time 14.0 day
[5] = Toxicity in C57 mouse assessed as myelosuppression by measuring MCV level at 20 mg/kg/day, IG administered for 14 days by heat map analysis; type: organism-based; settings: in vivo, po, 336 h, time 14 day
[6] = biological target: Programmed cell death 1 ligand 1 (Mus musculus, UniProt Q9EP73); assay: Binding affinity to C-terminal 6His-tagged recombinant mouse PD-L1 (1 to 238 residues) expressed in HEK293 cells assessed as dissociation constant by ITC analysis
Programmed cell death 1 ligand 1, sequence (Q9EP73 whole entry, the tested form may be a part): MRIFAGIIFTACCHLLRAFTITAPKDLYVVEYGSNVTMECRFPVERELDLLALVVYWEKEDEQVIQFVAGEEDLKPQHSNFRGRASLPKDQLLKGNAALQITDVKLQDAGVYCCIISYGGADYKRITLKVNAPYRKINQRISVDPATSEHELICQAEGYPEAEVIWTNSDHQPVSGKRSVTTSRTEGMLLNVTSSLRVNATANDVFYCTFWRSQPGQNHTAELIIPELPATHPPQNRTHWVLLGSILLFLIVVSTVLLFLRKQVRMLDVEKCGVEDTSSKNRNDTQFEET

[7] = system: Jurkat; assay: Cytotoxicity against human Jurkat T cells assessed as reduction in cell viability at 3.3 to 10 uM incubated for 48 hrs; type: functional, cell-based; settings: dose 3.3-10 µM
[8] = AUC (0 to t) in male Sprague-Dawley rat at 10 mg/kg, po measured after 48 hrs by triple quadrupole mass spectrometric analysis; type: ADME, organism-based; settings: in vivo
[9] = Toxicity in C57BL/6 mouse model implanted with mouse B16-F10 cells assessed as morphological changes in heart at 20 mg/kg/day, ip administered for 14 days by H and E staining based analysis; type: organism-based; settings: in vivo, 336 h, time 14 day
[10] = system: B16-F10; assay: Antitumor immunity activity against mouse B16-F10 cells implanted in C57BL/6 mouse model assessed as CD3+ CD4+ T cell percentage in tumor at 20 mg/kg/day, ip administered for 14 days by flow cytometric analysis (reference value: 0.095 %); type: functional; settings: time 14 day
[11] = Toxicity in C57 mouse assessed as change in GLO level at 20 mg/kg/day, IG administered for 14 days by heat map analysis; type: organism-based; settings: in vivo, po, 336 h, time 14 day
[12] = biological target: Histone deacetylase 1 (Mus musculus) (UniProt O09106); assay: Inhibition of HDAC1 in mouse B16-F10 cells assessed as increase in acetylated H3 level incubated for 12 hrs by Western blot analysis; type: cell-based
Histone deacetylase 1 (Mus musculus), sequence (O09106 whole entry): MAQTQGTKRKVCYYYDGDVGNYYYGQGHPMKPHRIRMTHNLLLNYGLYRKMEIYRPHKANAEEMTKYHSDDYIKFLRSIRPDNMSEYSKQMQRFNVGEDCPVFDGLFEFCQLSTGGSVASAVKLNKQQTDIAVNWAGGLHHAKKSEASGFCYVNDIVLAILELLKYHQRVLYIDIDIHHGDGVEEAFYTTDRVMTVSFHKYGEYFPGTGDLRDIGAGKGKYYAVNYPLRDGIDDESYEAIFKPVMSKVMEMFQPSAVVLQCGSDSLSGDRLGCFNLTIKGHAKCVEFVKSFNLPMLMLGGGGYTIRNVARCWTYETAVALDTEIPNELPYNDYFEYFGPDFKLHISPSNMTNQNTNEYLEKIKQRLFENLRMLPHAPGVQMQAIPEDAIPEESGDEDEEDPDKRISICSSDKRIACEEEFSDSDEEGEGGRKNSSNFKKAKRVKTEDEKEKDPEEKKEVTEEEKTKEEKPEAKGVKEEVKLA

[13] = Apparent volume of distribution during terminal phase in male Sprague-Dawley rat at 10 mg/kg, po measured after 48 hrs by triple quadrupole mass spectrometric analysis; type: ADME, organism-based; settings: in vivo, read-out: Vz/F
[14] = Toxicity in C57 mouse assessed as change in AST level at 20 mg/kg/day, IG administered for 14 days by heat map analysis; type: organism-based; settings: in vivo, po, 336 h, time 14 day
[15] = Toxicity in C57 mouse assessed as myelosuppression by measuring hemoglobin level at 20 mg/kg/day, IG administered for 14 days by heat map analysis; type: organism-based; settings: in vivo, po, 336 h, time 14 day
[16] = Tmax in male Sprague-Dawley rat at 10 mg/kg, po measured after 48 hrs by triple quadrupole mass spectrometric analysis; type: ADME, organism-based; settings: in vivo
[17] = Toxicity in C57 mouse assessed as change in ALT level at 20 mg/kg/day, IG administered for 14 days by heat map analysis; type: organism-based; settings: in vivo, po, 336 h, time 14 day
[18] = system: Jurkat; assay: cells; settings: Homo sapiens, 72 h
[19] = Toxicity in C57 mouse assessed as myelosuppression by measuring platelet level at 20 mg/kg/day, IG administered for 14 days by heat map analysis; type: organism-based; settings: in vivo, po, 336 h, time 14 day
[20] = system: B16-F10; assay: Antitumor activity against mouse B16-F10 cells implanted in C57BL/6 mouse model assessed as tumor growth inhibition at 20 mg/kg/day, ip administered for 14 days relative to control; type: functional; settings: B16-F10, 336 h, time 14 day, read-out: TGI
[21] = In vivo inhibition of PD-L1 in C57BL/6 mouse model implanted with mouse B16-F10 cells assessed as reduction in PD-L1 protein expression in tumor at 20 mg/kg/day, ip co-administered with ACY-1215 for 14 days by Western blot analysis relative to control; type: functional; settings: C57BL/6, B16-F10, 336 h, time 14 day
[22] = system: B16-F10; assay: Downregulation of PD-L1 expression level in mouse B16-F10 cells at 0.1 to 2 uM incubated for 24 hrs by Western blot analysis; type: functional, cell-based; settings: dose 0.1-2 µM
[23] = In vivo inhibition of PD-L1 in C57BL/6 mouse model implanted with mouse B16-F10 cells assessed as reduction in PD-L1 protein expression in tumor at 20 mg/kg/day, ip administered for 14 days by Western blot analysis relative to control; type: functional; settings: C57BL/6, B16-F10, 336 h, time 14 day
[24] = system: HepG2; assay: cells; settings: Homo sapiens, HepG2, 48 h
[25] = Toxicity in C57 mouse assessed as change in UREA level at 20 mg/kg/day, IG administered for 14 days by heat map analysis; type: organism-based; settings: in vivo, po, 336 h, time 14 day
[26] = Cmax in male Sprague-Dawley rat at 2 mg/kg, iv measured after 48 hrs by triple quadrupole mass spectrometric analysis; type: ADME, organism-based; settings: in vivo
[27] = system: HepG2; assay: Cytotoxicity against human HepG2 cells assessed as reduction in cell viability at 0.01 to 1 uM incubated for 48 hrs by MTT assay; type: functional, cell-based; settings: dose 0.01-1 µM
[28] = system: Jurkat; assay: Effect on Histone H3 protein level in human Jurkat T cells at 0.1 to 2 uM incubated for 12 hrs by Western blot analysis; type: functional, cell-based; settings: dose 0.1-2 µM
[29] = MRT (0 to infinity) in male Sprague-Dawley rat at 2 mg/kg, iv measured after 48 hrs by triple quadrupole mass spectrometric analysis; type: ADME, organism-based; settings: in vivo
[30] = system: B16-F10; assay: Downregulation of p-STAT3 expression level in mouse B16-F10 cells at 0.1 to 2 uM incubated for 24 hrs by Western blot analysis; type: functional, cell-based; settings: dose 0.1-2 µM
[31] = Toxicity in C57BL/6 mouse model implanted with mouse B16-F10 cells assessed as morphological changes in kidney at 20 mg/kg/day, ip administered for 14 days by H and E staining based analysis; type: organism-based; settings: in vivo, 336 h, time 14 day
[32] = system: MCF7; assay: cells; settings: Homo sapiens, MCF7, 48 h
[33] = system: B16-F10; assay: Antitumor immunity activity against mouse B16-F10 cells implanted in C57BL/6 mouse model assessed as CD3+ CD8+ T cell percentage in tumor at 20 mg/kg/day, ip co-administered with ACY-1215 for 14 days by flow cytometric analysis (reference value: 0.52 %); type: functional; settings: time 14 day
[34] = Toxicity in C57 mouse assessed as myelosuppression by measuring WBC level at 20 mg/kg/day, IG administered for 14 days by heat map analysis; type: organism-based; settings: in vivo, po, 336 h, time 14 day
[35] = biological target: Programmed cell death 1 ligand 1 (Mus musculus) (UniProt Q9EP73); assay: Binding affinity to C-terminal 6His-tagged recombinant mouse PD-L1 (1 to 238 residues) expressed in HEK293 cells assessed as change in secondary structure conformation at 2 uM incubated for 30 mins by CD spectra analysis; type: cell-based
Programmed cell death 1 ligand 1 (Mus musculus), sequence (Q9EP73 whole entry, the tested form may be a part): as the sequence (Q9EP73 whole entry, the tested form may be a part) above

[36] = biological target: Histone deacetylase 3 (Homo sapiens) (UniProt O15379); assay: Inhibition of HDAC3 in human Jurkat T cells assessed as increase in acetylated H3 level incubated for 12 hrs by Western blot analysis; type: cell-based
Histone deacetylase 3 (Homo sapiens), sequence (O15379 whole entry): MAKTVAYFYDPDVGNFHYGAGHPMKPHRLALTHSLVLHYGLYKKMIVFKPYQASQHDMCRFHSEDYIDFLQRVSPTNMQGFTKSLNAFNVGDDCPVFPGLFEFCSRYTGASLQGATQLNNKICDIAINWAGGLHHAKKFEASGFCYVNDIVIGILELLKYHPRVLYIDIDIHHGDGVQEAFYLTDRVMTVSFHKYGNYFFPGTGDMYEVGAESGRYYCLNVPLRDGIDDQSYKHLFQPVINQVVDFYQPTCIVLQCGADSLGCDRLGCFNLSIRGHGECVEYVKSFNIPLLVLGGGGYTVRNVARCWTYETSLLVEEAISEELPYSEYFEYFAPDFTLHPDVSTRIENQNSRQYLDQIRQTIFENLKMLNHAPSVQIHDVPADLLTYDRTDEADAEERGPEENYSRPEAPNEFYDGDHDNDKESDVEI

bioavailability [1]: 15.3%
AUC(0-t) at 48 h [8]: 872 ng·h/mL
inhibition [12]: inactive
Vd/F [13]: 31.9 L/kg
Tmax [16]: 5.55 h
pIC50 [18]: < 5.00
pIC50 [24]: 5.47
Cmax [26]: 638 ng/mL
MRT inf [29]: 7.12 h
pIC50 [32]: < 5.00
inhibition [36]: inactive
Structure (SMILES): COc1nc(-c2cccc(-c3ccccc3)c2C)ccc1CNCCCCCCC(=O)NO
Activity [2]: inactive
Activity [3]: Non-toxic
Activity [4]: Active
Activity [5]: Non-toxic
pKd [6]: 7.14
Activity [7]: Active; Mild Cytotoxicity Observed
Activity [9]: Non-toxic
Activity [10]: 11.5%
Activity [11]: Non-toxic
Activity [14]: Non-toxic
Activity [15]: Non-toxic
Activity [17]: Non-toxic
Activity [19]: Non-toxic
inhibition in vivo at 20 mg/kg/day [20]: 65.5%
inhibition in vivo at 20 mg/kg/day [21]: ~62%
Activity [22]: Active
inhibition in vivo at 20 mg/kg/day [23]: ~68%
Activity [25]: Non-toxic
Activity [27]: inactive
Activity [28]: inactive
Activity [30]: Active
Activity [31]: Non-toxic
Activity [33]: 6.39%
Activity [34]: Non-toxic
Activity [35]: Active
